The results in this text go back to patent US9937115B2, “Oral care compositions with improved flavor” (priority 2010, dated 2018).

Assay [1] addresses T1, TRPA1 receptor (Homo sapiens, UniProt O75762).
T1 construct: expressed in transfected cells; host or cells: HEK cell line
Type of assay: cell-based. As to conditions: percentage of the control (allyl isothiocyanate) calcium count, material dissolved in DMSO at 100 micromolar, HEK cells with TRPA1.

The target of assay [2] is T1, TRPA1 receptor. The assay is described as follows: cell-based. Also noted: activation: dose or concentration left out as unconfirmed. Particulars: percentage of the control (allyl isothiocyanate) calcium count, material dissolved in DMSO at 100 micromolar, HEK cells with TRPA1; for activation at 100 µM / activation: HEK293; for TRPA1 Direct addition / activation at 100 µM: direct addition; for activation at 100 µM: read-out: TRPA1 Direct addition; for activation: pre-incubation, read-out: TRPA1 Pre-incubation. An outline of the steps: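 HEK cells expressing TRPA1 were treated with test compounds dissolved in DMSO at 100 micromolar, with allyl isothiocyanate as positive control. Agonism was read on a FLIPR as calcium-dye fluorescence counts above background. A TRPA1 activator was defined as giving at least 1000 counts above background at 1 mM.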
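Wherever TRPA1 Pre-incubation is given: values above 100 mean more active than the control.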

T1 sequence (O75762 whole entry): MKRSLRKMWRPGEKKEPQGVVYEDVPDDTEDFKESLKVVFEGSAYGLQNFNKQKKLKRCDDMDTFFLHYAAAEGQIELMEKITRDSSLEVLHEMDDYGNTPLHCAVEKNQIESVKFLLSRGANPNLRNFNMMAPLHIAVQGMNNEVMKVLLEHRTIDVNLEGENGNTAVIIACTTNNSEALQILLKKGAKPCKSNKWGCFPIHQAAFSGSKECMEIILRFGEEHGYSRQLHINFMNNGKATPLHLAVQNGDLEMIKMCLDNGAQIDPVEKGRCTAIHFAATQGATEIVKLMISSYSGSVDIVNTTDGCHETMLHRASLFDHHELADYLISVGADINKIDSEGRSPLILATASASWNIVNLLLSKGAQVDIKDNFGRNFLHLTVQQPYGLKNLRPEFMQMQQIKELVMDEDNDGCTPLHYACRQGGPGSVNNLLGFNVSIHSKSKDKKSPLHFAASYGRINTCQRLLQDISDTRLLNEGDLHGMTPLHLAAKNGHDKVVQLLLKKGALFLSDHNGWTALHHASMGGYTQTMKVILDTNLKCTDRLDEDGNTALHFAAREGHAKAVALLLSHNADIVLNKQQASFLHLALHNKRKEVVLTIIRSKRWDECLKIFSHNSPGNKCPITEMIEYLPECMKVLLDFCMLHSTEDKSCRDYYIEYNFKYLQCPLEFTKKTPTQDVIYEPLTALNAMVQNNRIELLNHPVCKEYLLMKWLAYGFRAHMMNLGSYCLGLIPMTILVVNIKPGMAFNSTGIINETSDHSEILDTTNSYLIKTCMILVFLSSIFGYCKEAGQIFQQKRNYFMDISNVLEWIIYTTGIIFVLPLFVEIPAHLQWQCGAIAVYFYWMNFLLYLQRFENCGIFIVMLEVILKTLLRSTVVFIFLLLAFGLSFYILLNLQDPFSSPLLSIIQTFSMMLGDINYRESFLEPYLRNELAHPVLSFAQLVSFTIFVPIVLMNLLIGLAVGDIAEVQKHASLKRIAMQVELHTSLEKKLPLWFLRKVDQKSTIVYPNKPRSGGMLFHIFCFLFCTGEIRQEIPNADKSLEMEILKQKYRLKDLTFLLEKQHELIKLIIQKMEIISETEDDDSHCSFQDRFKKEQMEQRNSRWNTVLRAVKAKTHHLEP

As for `CC(=O)c1nccs1` [2-Aceylthiazole], the “TRPA1 Pre-incubation” value at TRPA1 receptor [1] is 57.82%. Besides, the “TRPA1 Direct addition” value at TRPA1 receptor [2] is −1.29%.
For `C=CC(C)(O)CCC=C(C)CC` (mixture of isomers) [Ethyl Linalool], in that order: 63.35% and −0.1%.
With `CCOC(=O)C1OC1c1ccccc1` (stereo not drawn) [Ethyl-3-Phenylglycinate], on TRPA1 receptor [1], the “TRPA1 Pre-incubation” value was 54.22%. Further, the “TRPA1 Direct addition” value on TRPA1 receptor [2] was 12.13%.
For `C=C(C)C1CC=C(C)C(OC(=O)CC)C1` (stereo not drawn) [Carvyl Propionate] the same measures were 105.07% and −0.57%.
For 2-phenyl propyl tetrahydrofuran the same measures were 108.49% and −0.15%.
With `CCC1OC(C)=C(O)C1=O` (stereo not drawn) [2-Ethyl-4-Hydroxy-5-Methyl-3(2) Furanone], the “TRPA1 Pre-incubation” value at TRPA1 receptor [1] is given as 78.56%. For the same compound, at TRPA1 receptor [2], the “TRPA1 Direct addition” value was −1.06%.
Take `CCCCCCCCCCCC=O` [Lauric Aldehyde]: the “TRPA1 Pre-incubation” value on TRPA1 receptor [1] is reported as 85.96%. Further, the “TRPA1 Direct addition” value on TRPA1 receptor [2] worked out at 19.05%.
Regarding `CC1C2CC(CC2C2CCCC(O)C2)C1(C)C` (stereo not drawn) [Sandela], at TRPA1 receptor [1], the “TRPA1 Pre-incubation” value stood at 94.17%. The “TRPA1 Direct addition” value on TRPA1 receptor [2] is 25.65%.
For Iso Jasmone, in that order: 58.16% and 11.48%.
For the compound `O=C(O)C(O)C(O)C(=O)O` [L-Tataric Acid], on TRPA1 receptor [1], the “TRPA1 Pre-incubation” value came to 79%. Besides, on TRPA1 receptor [2], the “TRPA1 Direct addition” value is listed as −2.77%.
For Benzaldehyde Glyceryl Acetal the same measures were 30.62% and −2.74%.
For `[Cl][Sn][Cl]` [Stannous Chloride] the same measures were 54.35% and −14.1%.
For `C/C=C\C(=O)C1C(C)=CCCC1(C)C` (stereo not drawn) [Alpha-Damascone] the same measures were 96.58% and −2.88%.
For the compound `COc1ccc(CC(C)=O)cc1` [1-(P-Methoxyphenyl)-2-Propanone], the “TRPA1 Pre-incubation” value at TRPA1 receptor [1] was 77.63%. At TRPA1 receptor [2], the “TRPA1 Direct addition” value is 0.49%.
On to `CCC(C)(O)CCCC(C)C` (stereo not drawn) [Tetrahydrolinalool], for which the “TRPA1 Pre-incubation” value on TRPA1 receptor [1] worked out at 70.8%. For the same compound, the “TRPA1 Direct addition” value on TRPA1 receptor [2] is on record as −17.09%.
With `CCCCCC(C)=O` [Heptanone], the “TRPA1 Pre-incubation” value on TRPA1 receptor [1] worked out at 69.5%. The “TRPA1 Direct addition” value at TRPA1 receptor [2] is −0.04%.
For `COc1ccc(C(C)=O)cc1` [Acetanisole], in that order: 83.69% and 0.15%.
For `CCC(C)C=O` (stereo not drawn) [2-Methylbutraldehyde], in that order: 35.61% and 81.04%.
On to `CC(=O)O[C@@H]1C[C@H](C)CC[C@H]1C(C)C` (racemic) [DL-Menthyl Acetate], for which, at TRPA1 receptor [1], the “TRPA1 Pre-incubation” value is given as 43.32%. For the same compound, at TRPA1 receptor [2], the “TRPA1 Direct addition” value is reported as −16.09%.
For `CC(=O)OC1C2(C)CCC(C2)C1(C)C` (stereo not drawn) [Fenchyl Acetate] the same measures were 59.08% and −0.1%.
For Phellandrene the same measures were 52.15% and 1.65%.
On to `CCOC(=O)c1ccccc1N` [Ethyl Anthrailate], for which the “TRPA1 Pre-incubation” value at TRPA1 receptor [1] was determined as 61.95%. Further, the “TRPA1 Direct addition” value on TRPA1 receptor [2] is on record as 39.71%.
Consider `C/C=C/C(=O)C1C(C)C=CCC1(C)C` (stereo not drawn) [delta-damascone], for which the “TRPA1 Pre-incubation” value on TRPA1 receptor [1] is 138.93%. Further, the “TRPA1 Direct addition” value at TRPA1 receptor [2] was determined as 0.74%.
Turning to `CC(=O)/C=C/C1C(C)=CCCC1(C)C` (stereo not drawn) [Alpha-Ionone], the “TRPA1 Pre-incubation” value on TRPA1 receptor [1] was 111.19%. In addition, on TRPA1 receptor [2], the “TRPA1 Direct addition” value is listed as −0.9%.
For `CCCc1ccc(O)c(OC)c1` [Dihydroeugenol], in that order: 103.71% and 0.07%.
For `CCc1nc(C)cs1` [2-Ethyl-4-Methythiazole] the same measures were 62.39% and −1.38%.
For `CC(=O)CCC1C(C)=CCCC1(C)C` (stereo not drawn) [Dihydro-alpha-ionone] the same measures were 108.18% and 0.11%.
In the case of `CCOC(=O)/C=C/c1ccccc1` [Ethyl Cinnemate], at TRPA1 receptor [1], the “TRPA1 Pre-incubation” value was determined as 70.82%. The “TRPA1 Direct addition” value on TRPA1 receptor [2] amounted to 0.45%.
For `C=C(C)CCCC(C)CCOC(C)=O` (stereo not drawn) [Rhodinyl Acetate], in that order: 66.4% and −17.14%.
For Jasmonyl, in that order: 68.48% and 7.36%.
For `CC(C)[C@@H]1CC[C@@H](C)CC1=O` [L-Menthone] the same measures were 70.56% and 4.4%.
`C=C(C)[C@@H]1CCC2=CCC[C@@H](C)[C@]2(C)C1` [Valencene]: the “TRPA1 Pre-incubation” value on TRPA1 receptor [1] was determined as 94.99%. The “TRPA1 Direct addition” value at TRPA1 receptor [2] is listed as 0.1%.
In the case of `C=C(OCC)C1C(C)(C)CC(=O)CC1(C)C` [Kephalis], on TRPA1 receptor [1], the “TRPA1 Pre-incubation” value is listed as 83.88%. In addition, the “TRPA1 Direct addition” value on TRPA1 receptor [2] is −0.23%.
For `Cc1ccc(C=O)c(O)c1` [2_Hydroxy-4-Methyl Benzaldehyde] the same measures were 68.24% and 0.4%.
For `[Cl-].[Cl-].[Zn+2]` [Zinc Chloride] the same measures were 21.61% and 5.46%.
For `CC(C)=CCC/C(C)=C/C=O` [Lemarome] the same measures were 41.41% and 80.13%.
For the compound `CC1=C(CCC(C)O)C(C)(C)CCC1` (stereo not drawn) [Dihydro-beta-ionol], the “TRPA1 Pre-incubation” value on TRPA1 receptor [1] was found to be 97.15%. Also, at TRPA1 receptor [2], the “TRPA1 Direct addition” value is −0.33%.
For `CCOC(=O)C1OC1(C)c1ccccc1` (stereo not drawn) [Ethyl 3-Methyl-3-Phenylglycidate] the same measures were 77.42% and 23.6%.
For `CC(=O)CCc1ccc(O)cc1` [4-P-hydroxyphenyl-2-butanone] the same measures were 63.07% and 0.2%.
For `C/C=C/c1ccc(OC(=O)Cc2ccccc2)c(OC)c1` [Iso-eugenyl phenylacetate], in that order: 42.19% and 29.74%.
Take `Cc1ccc(C=O)cc1` [P-Totylaldehyde]: on TRPA1 receptor [1], the “TRPA1 Pre-incubation” value amounted to 60.52%. For the same compound, the “TRPA1 Direct addition” value at TRPA1 receptor [2] was determined as 11.1%.
For `CCCC(=O)OCc1ccc(OC)cc1` [Anisyl butyrate] the same measures were 112.61% and −0.03%.
For `C/C=C/c1ccc(OCC)c(OC)c1` [ethyl isoeugenol] the same measures were 111.43% and −0.14%.
For `CCOC(=O)CSC` [Ethyl Methylthio Acetate], in that order: 55.69% and −0.06%.
As to `CC(=O)OCCCc1ccccc1` [Phenyl Propyl Acetate], the “TRPA1 Pre-incubation” value on TRPA1 receptor [1] was 69.3%. For the same compound, at TRPA1 receptor [2], the “TRPA1 Direct addition” value was −9.54%.
For `CCCC(=O)OC(C)c1ccccc1` (stereo not drawn) [methyl benzyl butyrate] the same measures were 116.22% and −0.34%.
For `CCCCOC(=O)C(C)OC(=O)CCC` (stereo not drawn) [Butyl Butyryllactate] the same measures were 39.69% and −1.54%.
For `CC1=C(/C=C/C(C)O)C(C)(C)CCC1` (stereo not drawn) [Beta-ionol] the same measures were 114.23% and −0.01%.
Consider Roselea Spec 59514, for which the “TRPA1 Pre-incubation” value at TRPA1 receptor [1] turned out to be 71.26%. For the same compound, the “TRPA1 Direct addition” value at TRPA1 receptor [2] is 14.53%.
For `CC(C)=CC1CC(C)CCO1` (racemic) [Rose Oxide Racemic], in that order: 80.14% and −6.68%.
Take `CC(=O)O[C@@H]1C[C@H](C)CC[C@H]1C(C)C` [Laevo Menthyl Acetate]: the “TRPA1 Pre-incubation” value at TRPA1 receptor [1] is given as 87.91%. Also, the “TRPA1 Direct addition” value on TRPA1 receptor [2] is on record as −9.39%.
With 4-Ethylguaiacol, the “TRPA1 Pre-incubation” value on TRPA1 receptor [1] worked out at 53.53%. Besides, the “TRPA1 Direct addition” value at TRPA1 receptor [2] was 55.61%.
For `C=C[C@](C)(O)CCC=C(C)C` [L-Linalool], in that order: 65.28% and −11.37%.
Regarding `CC(=O)/C=C/C1=C(C)CCCC1(C)C` [Beta Ionone], the “TRPA1 Pre-incubation” value at TRPA1 receptor [1] came out at 75.35%. At TRPA1 receptor [2], the “TRPA1 Direct addition” value is reported as −2.88%.
For `C=CCCC(=O)/C=C/C1C(C)=CCCC1(C)C` (stereo not drawn) [Allyl Alpha-Ionone] the same measures were 64.99% and 0.55%.
For `C=C/C(C)=C/C/C=C(\C)CCC=C(C)C` [Farmesene] the same measures were 90.8% and −0.32%.
With `CCCCCCCC(=O)OCC` [Ethyl Octanoate], at TRPA1 receptor [2], the activation at 100 µM was -0.14% and the activation came to 87.3%.
On to `CCCCCCOC(=O)CC` [Hexyl Propionate], for which, at TRPA1 receptor [2], the activation at 100 µM is -15.9% and the activation came to 78.9%.
For `O=C(c1ccccc1)C(O)c1ccccc1` (stereo not drawn) [Benzoin] the same measures were -0.5% and 56.2%.
For `CCCCCC/C=C/C=C/C=O` [trans,trans-2,4-Undecadienal], in that order: 122% and -3.93%.
